Holding throughout (experiment): NCI anticancer screen, dose series, 48 h
The test system of test [1] is BT-549.
Test [2] relates to U-251.
Test [3] relates to KM12.
The subject of test [4] is OVCAR-3.
The subject of test [5] is HT-29.
The subject of test [6] is K562.
For test [7], the system named is MCF7.
Test [8] deals with SNB-19.
The test system of test [9] is SF-539.
Test [10] deals with MOLT-4.
Test [11] deals with HL-60.
In test [12] the test system is HCC 2998.
In test [13] the test system is 786-0.
Test [14] deals with LOX IMVI.
Test [15] deals with MDA-MB-231.
Test [16] relates to T47D.
For test [17], the system named is MDA-MB-435.
Test [18] has as its system SK-MEL-2.
In test [19] the test system is NCI-H23.
The subject of test [20] is COLO 205.

Each structure is given as a SMILES string.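 Step 1: Grow cells in 96-well plates. Step 2: Expose to compound for 48 hours at 5 concentrations. Step 3: Interpolate endpoints linearly; if unreached, use highest concentration. GI50 is the concentration that inhibits growth by half.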 Active and inactive are the calls of the source. No stated cut-off is given here; in the data, active = GI50 up to about 1.1 µM and inactive = higher. A value given as a limit tells only on which side of the number the result lay.

Turning to `Cc1ccc(S(=O)(=O)C2=C(C(C)C)N=NC2(C)C)cc1`, the GI50 in test [1] was 48.8 µM (inactive); in test [2], > 100 µM (inactive); in [3], > 100 µM (inactive); in test [4], > 100 µM (inactive); in [5], > 100 µM (inactive); in [6], 28.6 µM (inactive). The GI50 in [7] was 62.7 µM (inactive); in [8], > 100 µM (inactive); in [9] it was > 100 µM (inactive); in [10], 18.7 µM (inactive); in test [11] it was > 100 µM (inactive); in test [12], 73.6 µM (inactive). The GI50 was > 100 µM (inactive) in [13]; 88.9 µM (inactive) in [14]; > 100 µM (inactive) in test [15]; 60.1 µM (inactive) in test [16]; 47.6 µM (inactive) in test [17]; > 100 µM (inactive) in test [18]. Also, in test [19], the GI50 is 48.8 µM (inactive).
As for `CCOC(=O)CCC(NC(=O)c1ccc(NCc2ccc3nc(OC)c(OC)nc3c2)c2ccccc12)C(=O)OCC` (stereo unspecified), the GI50 in [1] was > 100 µM (inactive); in test [2] it was 40.5 µM (inactive); in test [3], > 100 µM (inactive); in [4], 94.2 µM (inactive); in [5], > 100 µM (inactive); in test [6] it was > 100 µM (inactive). The GI50 in test [7] is 84.9 µM (inactive); in test [8], 76.2 µM (inactive); in [9] it was 20.8 µM (inactive); in test [10], > 100 µM (inactive); in test [20], > 100 µM (inactive); in test [11] it was 0.0836 µM (active). Further, the GI50 was > 100 µM (inactive) in test [12]; 26.2 µM (inactive) in test [13]; > 100 µM (inactive) in test [14]; 71.1 µM (inactive) in test [15]; > 100 µM (inactive) in test [16]; > 100 µM (inactive) in [17]. Further, the GI50 in test [18] and in [19] was > 100 µM (inactive) throughout.
As for `CC(C)(C)n1c(=O)n2c(-c3ccccc3)c(-c3ccccc3)n2c1=O`, the GI50 is 53.7 µM (inactive) in test [1]; > 100 µM (inactive) in test [2]; > 100 µM (inactive) in [3]; > 100 µM (inactive) in test [4]; 66.7 µM (inactive) in test [5]; 1.24 µM (inactive) in [6]. Further, the GI50 is 56.6 µM (inactive) in [7]; > 100 µM (inactive) in [8]; 36.8 µM (inactive) in test [9]; > 100 µM (inactive) in test [20]; 11.5 µM (inactive) in test [11]; 49.7 µM (inactive) in test [12]. Besides, the GI50 in test [13] is 57.5 µM (inactive); in [14], 68.4 µM (inactive); in test [15], > 100 µM (inactive); in test [16] it was > 100 µM (inactive); in test [17], > 100 µM (inactive); in test [18] it was 28.8 µM (inactive). The GI50 in [19] was > 100 µM (inactive).
Take `O=C(c1ccc(F)cc1)c1cccc(C(=O)c2ccc(F)cc2)n1`: the GI50 in [1] is 12.2 µM (inactive); in test [2] it was 19.1 µM (inactive); in [3], > 100 µM (inactive); in test [4], > 100 µM (inactive); in test [5] it was > 100 µM (inactive); in test [6], > 100 µM (inactive). Further, the GI50 was > 100 µM (inactive) in [7]; 25.2 µM (inactive) in test [8]; 30.8 µM (inactive) in test [9]; > 100 µM (inactive) in test [10]; > 100 µM (inactive) in test [20]; > 100 µM (inactive) in [11]. Moreover, the GI50 in test [12] was > 100 µM (inactive); in [13] it was 37.8 µM (inactive); in test [14] it was 60.7 µM (inactive); in [15], 38.6 µM (inactive); in [16], 34.4 µM (inactive); in test [17] it was > 100 µM (inactive). Besides, the figures for the GI50 in test [18] and in [19] were 27.7 µM (inactive) and 20.2 µM (inactive), respectively.
Consider `CCn1c(SCC(=O)NNC(=S)NC)nc2ccccc2c1=O`, for which the GI50 in test [1] was 68.1 µM (inactive); in test [2], > 100 µM (inactive); in test [3], > 100 µM (inactive); in [4], > 100 µM (inactive); in test [6], > 100 µM (inactive); in [7], > 100 µM (inactive). For the same compound, the GI50 in [8], in test [9], in [10], in test [20], in test [11] and in [12] was > 100 µM (inactive) throughout. Also, the GI50 in [13], in [14], in test [15], in test [16], in test [17] and in [18] was > 100 µM (inactive) in each case. The GI50 in [19] was > 100 µM (inactive).
`CC1=NCCN=C(C)C1/N=N/c1ccc2[nH]c(C)nc2c1`: the GI50 in [1] is 9.08 µM (inactive); in [2], 17.5 µM (inactive); in test [3] it was 11.7 µM (inactive); in test [4] it was 19.5 µM (inactive); in test [5], 12.6 µM (inactive); in [6] it was 4.83 µM (inactive). Further, the GI50 in test [7] is 5.75 µM (inactive); in test [8], 10 µM (inactive); in test [9], 20.5 µM (inactive); in test [10], 6.38 µM (inactive); in test [20] it was 15.2 µM (inactive); in test [11], 3.54 µM (inactive). For the same compound, the GI50 in [12] is 14 µM (inactive); in test [13] it was 11.7 µM (inactive); in test [14], 20.7 µM (inactive); in [15], 12.7 µM (inactive); in test [16], 12.7 µM (inactive); in [17], 8.53 µM (inactive). Also, the GI50 was 19.2 µM (inactive) in [18] and 13.8 µM (inactive) in test [19].
In the case of `CCn1c(SCC(=O)N/N=C2\SCC(=O)N2c2ccc(C)cc2)nc2ccccc2c1=O`, the GI50 in test [1] is > 10 µM (inactive); in [2], 20.7 µM (inactive); in test [3], 19.4 µM (inactive); in test [4] it was 21.4 µM (inactive); in test [5], 16.5 µM (inactive); in test [6], 29.2 µM (inactive). Further, the GI50 in test [7] was 20.6 µM (inactive); in test [8] it was 20.8 µM (inactive); in test [9], 17.6 µM (inactive); in [10], 25.9 µM (inactive); in test [20], 50.9 µM (inactive); in test [11] it was 92.3 µM (inactive). Also, the GI50 was 36.8 µM (inactive) in test [12]; 19.1 µM (inactive) in test [13]; 25.2 µM (inactive) in test [14]; 20.2 µM (inactive) in test [15]; 25.1 µM (inactive) in test [16]; 21.2 µM (inactive) in test [17]. For the same compound, the GI50 in [18] is 28.9 µM (inactive); in test [19], 19.1 µM (inactive).
Take `COC1CC(OC2C(C)OC(OC3C(C)OC(OC4C(O)CC(O[C@H]5CC[C@@]6(C)C(=CC[C@]7(O)[C@@H]6C[C@@H](OC(C)=O)[C@@]6(C)[C@]7(O)CC[C@@]6(O)C(C)=O)C5)OC4C)CC3OC)CC2OC)OC(C)C1O` (stereo partly specified): the GI50 in test [1], in test [2], in test [3], in [4], in [5] and in test [6] was > 12.5 µM (inactive) each time. Also, the GI50 in [7], in test [8], in test [9], in test [10], in test [20] and in test [11] was > 12.5 µM (inactive) in each case. The GI50 in [12], in [13], in test [14], in test [15], in test [16] and in test [17] was > 12.5 µM (inactive) throughout. Also, the GI50 in test [18] and in test [19] was > 12.5 µM (inactive) throughout.
Regarding `COc1cc(N(CCC#N)CCC#N)ccc1C(=N/NC(=O)c1cc(Br)ccc1O)/N=N/c1ccccc1`, the GI50 was 20.8 µM (inactive) in [1]; 32.1 µM (inactive) in [2]; 28.2 µM (inactive) in [3]; 22 µM (inactive) in [4]; 24.9 µM (inactive) in test [5]; 19.4 µM (inactive) in [6]. The GI50 in test [7] is 18.9 µM (inactive); in [8], 32.1 µM (inactive); in test [9], 34.2 µM (inactive); in [10], 15.9 µM (inactive); in test [20], 16.3 µM (inactive); in test [11] it was 13.9 µM (inactive). Also, the GI50 in test [12] was 23.3 µM (inactive); in [13] it was 29.1 µM (inactive); in [14] it was 25.8 µM (inactive); in test [15] it was 21.2 µM (inactive); in test [16] it was 24 µM (inactive); in [17] it was 36.6 µM (inactive). Besides, the results for the GI50 in test [18] and in test [19] were 26.7 µM (inactive) and 21.4 µM (inactive), respectively.
On to `COC(=O)C[C@](O)(CCCC(C)(C)O)C(=O)O[C@@H]1C(OC)=C[C@]23CCCN2CCc2cc4c(cc2[C@H]13)OCO4` [OMACETAXINE MEPESUCCINATE], for which the GI50 in test [1] is 3.6 µM (inactive); in test [2], 0.0571 µM (active); in [3], 0.142 µM (active); in test [5] it was 0.115 µM (active); in [6], 0.0397 µM (active); in [7], 0.015 µM (active). Moreover, the GI50 in [8] was 0.0706 µM (active); in [9], 0.056 µM (active); in test [10] it was 0.0123 µM (active); in test [20], 0.218 µM (active); in test [11], 0.0325 µM (active); in [12], 0.0583 µM (active). Moreover, the GI50 in test [13] is 0.893 µM (active); in test [14], 0.0444 µM (active); in test [15], 1.7 µM (inactive); in [16] it was 0.383 µM (active); in test [17], 4.46 µM (inactive); in test [18] it was 0.259 µM (active). The GI50 in test [19] was 0.0528 µM (active).

The values are drawn from ChEMBL document CHEMBL1201862, “PubChem BioAssay data set” (2004).
